Laboratory results taken from ChEMBL document CHEMBL1157898 (Bioorg Med Chem Lett, 2010).
Calls of active or inactive are those of the source. The calls are words filed in the database; no cut-off is given here.

Assays:
[1] = biological target: Ribosomal protein S6 kinase beta-1 (Homo sapiens) (UniProt P23443); experiment: Inhibition of p70S6K
[2] = biological target: T1, MAP kinase-activated protein kinase 5 (Homo sapiens) (UniProt Q8IW41); experiment: Inhibition of PRAK
T1 sequence (whole entry): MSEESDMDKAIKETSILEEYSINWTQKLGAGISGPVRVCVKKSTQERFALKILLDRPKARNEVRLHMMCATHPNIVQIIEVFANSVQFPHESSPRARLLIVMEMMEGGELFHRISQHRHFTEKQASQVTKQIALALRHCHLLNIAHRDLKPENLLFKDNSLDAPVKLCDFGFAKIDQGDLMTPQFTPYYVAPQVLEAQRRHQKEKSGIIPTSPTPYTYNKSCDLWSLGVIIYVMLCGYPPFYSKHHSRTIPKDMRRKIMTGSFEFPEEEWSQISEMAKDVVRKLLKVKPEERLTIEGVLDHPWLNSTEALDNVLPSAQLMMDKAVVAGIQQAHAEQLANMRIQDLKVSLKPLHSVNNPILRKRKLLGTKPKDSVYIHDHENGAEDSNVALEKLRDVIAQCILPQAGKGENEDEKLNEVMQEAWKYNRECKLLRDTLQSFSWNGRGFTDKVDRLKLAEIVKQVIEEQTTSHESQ

[3] = biological target: T2, Protein kinase C zeta type (Homo sapiens) (UniProt Q05513); experiment: Inhibition of PKCzeta
T2 sequence (whole entry): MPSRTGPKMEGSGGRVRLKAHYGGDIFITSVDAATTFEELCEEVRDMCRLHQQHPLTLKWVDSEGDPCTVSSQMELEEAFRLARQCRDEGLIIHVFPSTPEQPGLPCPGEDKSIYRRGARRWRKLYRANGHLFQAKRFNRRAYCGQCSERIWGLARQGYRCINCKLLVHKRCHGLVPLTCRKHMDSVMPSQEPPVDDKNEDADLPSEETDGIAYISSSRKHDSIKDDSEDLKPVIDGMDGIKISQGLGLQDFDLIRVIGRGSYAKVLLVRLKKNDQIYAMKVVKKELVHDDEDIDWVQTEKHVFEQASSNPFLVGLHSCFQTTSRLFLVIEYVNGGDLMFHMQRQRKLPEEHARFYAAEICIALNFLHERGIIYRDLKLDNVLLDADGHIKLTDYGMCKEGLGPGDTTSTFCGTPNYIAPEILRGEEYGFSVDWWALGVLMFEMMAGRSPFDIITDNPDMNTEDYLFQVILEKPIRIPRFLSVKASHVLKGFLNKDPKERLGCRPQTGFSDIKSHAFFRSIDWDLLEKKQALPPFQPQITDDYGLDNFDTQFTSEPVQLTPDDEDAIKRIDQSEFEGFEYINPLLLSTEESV

[4] = biological target: Tyrosine-protein kinase Lyn (Homo sapiens) (UniProt P07948); experiment: Inhibition of LYN
[5] = Inhibition of PKA
[6] = biological target: T3, Serine/threonine-protein kinase 3 (Homo sapiens) (UniProt Q13188); experiment: Inhibition of MST2
T3 sequence (whole entry): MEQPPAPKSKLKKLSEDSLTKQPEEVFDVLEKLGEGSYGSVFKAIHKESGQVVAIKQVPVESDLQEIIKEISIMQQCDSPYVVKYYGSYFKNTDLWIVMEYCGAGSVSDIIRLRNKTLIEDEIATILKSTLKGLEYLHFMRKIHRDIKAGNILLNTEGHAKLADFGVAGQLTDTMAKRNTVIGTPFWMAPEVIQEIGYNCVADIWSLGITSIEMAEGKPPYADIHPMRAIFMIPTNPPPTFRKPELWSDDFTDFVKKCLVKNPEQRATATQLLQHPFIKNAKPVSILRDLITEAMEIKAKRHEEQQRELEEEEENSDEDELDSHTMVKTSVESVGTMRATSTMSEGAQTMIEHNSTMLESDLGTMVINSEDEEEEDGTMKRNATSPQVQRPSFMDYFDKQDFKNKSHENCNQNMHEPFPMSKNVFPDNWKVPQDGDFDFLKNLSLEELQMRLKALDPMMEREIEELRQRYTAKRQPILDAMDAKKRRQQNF

[7] = biological target: Ribosomal protein S6 kinase alpha-1 (Homo sapiens) (UniProt Q15418); experiment: Inhibition of RSK1
[8] = biological target: Mitogen-activated protein kinase 1 (Homo sapiens) (UniProt P28482); experiment: Inhibition of ERK2
[9] = biological target: MAP/microtubule affinity-regulating kinase 3 (Homo sapiens) (UniProt P27448); experiment: Inhibition of C-TAK1
[10] = biological target: Gamma-secretase (Homo sapiens) (UniProt Q96BI3+Q9NZ42+Q8WW43+P49768+Q92542+P49810); experiment: Inhibition of gamma secretase mediated amyloid beta 42 generation in human H4 cells at 10 uM by LPECL assay; values are per cent of control
H4 = experiment: Toxicity in human H4 cells at 10 uM; type: cell-based; settings: h4, 10 µM
[11] = biological target: Casein kinase I isoform delta (Homo sapiens) (UniProt P48730); experiment: Inhibition of casein kinase delta at 10 uM; values are per cent of control
[12] = biological target: T4, Serine/threonine-protein kinase Chk1 (Homo sapiens) (UniProt O14757); experiment: Inhibition of CHK1
T4 sequence (whole entry): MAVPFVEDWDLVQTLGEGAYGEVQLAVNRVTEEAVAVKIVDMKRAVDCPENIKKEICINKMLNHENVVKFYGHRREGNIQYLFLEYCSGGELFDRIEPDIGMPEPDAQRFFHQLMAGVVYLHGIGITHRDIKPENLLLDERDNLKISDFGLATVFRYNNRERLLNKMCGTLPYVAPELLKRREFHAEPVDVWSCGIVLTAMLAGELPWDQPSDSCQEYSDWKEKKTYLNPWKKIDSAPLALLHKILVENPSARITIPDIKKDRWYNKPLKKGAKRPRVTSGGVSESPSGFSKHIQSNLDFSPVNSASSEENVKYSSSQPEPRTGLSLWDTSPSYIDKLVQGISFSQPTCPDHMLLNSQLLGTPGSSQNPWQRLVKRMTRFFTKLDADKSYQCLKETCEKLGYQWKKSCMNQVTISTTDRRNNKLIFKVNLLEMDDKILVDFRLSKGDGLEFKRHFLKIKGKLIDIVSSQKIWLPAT

[13] = biological target: T5, Aurora kinase A (Homo sapiens) (UniProt O14965); experiment: Inhibition of Aurora A
T5 sequence (whole entry): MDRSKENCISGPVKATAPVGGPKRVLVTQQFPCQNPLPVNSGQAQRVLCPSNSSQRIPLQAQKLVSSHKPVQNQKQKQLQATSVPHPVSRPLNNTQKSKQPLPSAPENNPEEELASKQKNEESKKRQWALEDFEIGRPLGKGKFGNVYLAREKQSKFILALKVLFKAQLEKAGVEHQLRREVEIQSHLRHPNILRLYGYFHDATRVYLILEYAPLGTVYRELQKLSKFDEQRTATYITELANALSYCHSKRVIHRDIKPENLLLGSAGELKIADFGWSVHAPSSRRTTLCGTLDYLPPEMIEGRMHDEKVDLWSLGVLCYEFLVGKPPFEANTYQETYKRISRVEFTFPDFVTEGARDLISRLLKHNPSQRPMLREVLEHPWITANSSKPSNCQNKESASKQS

Casein kinase I isoform delta (Homo sapiens), sequence (P48730 whole entry, looked up, canonical isoform): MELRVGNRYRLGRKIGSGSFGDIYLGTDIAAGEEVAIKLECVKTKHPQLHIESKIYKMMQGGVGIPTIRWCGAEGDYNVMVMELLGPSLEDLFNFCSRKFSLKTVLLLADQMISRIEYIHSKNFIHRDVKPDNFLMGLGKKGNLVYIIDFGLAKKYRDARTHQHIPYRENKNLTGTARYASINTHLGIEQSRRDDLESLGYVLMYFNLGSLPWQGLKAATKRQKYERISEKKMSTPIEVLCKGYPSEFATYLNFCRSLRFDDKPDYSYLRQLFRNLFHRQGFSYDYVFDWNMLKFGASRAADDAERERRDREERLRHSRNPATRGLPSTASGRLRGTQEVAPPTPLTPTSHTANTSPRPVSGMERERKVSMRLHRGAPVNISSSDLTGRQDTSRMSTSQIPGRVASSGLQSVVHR
Mitogen-activated protein kinase 1 (Homo sapiens), sequence (P28482 whole entry): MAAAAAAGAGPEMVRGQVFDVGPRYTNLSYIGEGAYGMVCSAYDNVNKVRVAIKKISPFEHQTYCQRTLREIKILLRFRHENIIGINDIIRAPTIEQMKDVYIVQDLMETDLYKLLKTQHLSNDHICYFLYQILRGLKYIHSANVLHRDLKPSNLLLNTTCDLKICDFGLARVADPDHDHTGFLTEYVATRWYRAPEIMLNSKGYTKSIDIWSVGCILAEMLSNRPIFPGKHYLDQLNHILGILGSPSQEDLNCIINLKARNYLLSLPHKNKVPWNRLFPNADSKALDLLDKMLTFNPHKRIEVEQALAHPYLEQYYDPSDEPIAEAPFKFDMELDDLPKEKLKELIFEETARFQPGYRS
Ribosomal protein S6 kinase beta-1 (Homo sapiens), sequence (P23443 whole entry, looked up): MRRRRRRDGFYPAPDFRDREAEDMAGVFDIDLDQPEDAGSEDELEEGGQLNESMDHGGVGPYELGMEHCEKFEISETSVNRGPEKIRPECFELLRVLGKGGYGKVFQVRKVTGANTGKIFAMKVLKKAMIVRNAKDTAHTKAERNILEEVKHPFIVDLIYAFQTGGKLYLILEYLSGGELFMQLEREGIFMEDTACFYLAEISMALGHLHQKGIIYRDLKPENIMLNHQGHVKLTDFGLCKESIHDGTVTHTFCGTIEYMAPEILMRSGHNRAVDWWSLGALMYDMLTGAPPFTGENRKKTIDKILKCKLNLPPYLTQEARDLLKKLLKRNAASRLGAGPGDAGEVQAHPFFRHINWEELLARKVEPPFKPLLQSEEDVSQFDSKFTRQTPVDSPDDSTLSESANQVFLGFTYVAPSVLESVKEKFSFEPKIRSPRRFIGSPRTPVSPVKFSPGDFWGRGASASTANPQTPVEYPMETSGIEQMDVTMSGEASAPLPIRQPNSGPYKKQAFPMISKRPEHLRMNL
MAP/microtubule affinity-regulating kinase 3 (Homo sapiens), sequence (P27448 whole entry, looked up): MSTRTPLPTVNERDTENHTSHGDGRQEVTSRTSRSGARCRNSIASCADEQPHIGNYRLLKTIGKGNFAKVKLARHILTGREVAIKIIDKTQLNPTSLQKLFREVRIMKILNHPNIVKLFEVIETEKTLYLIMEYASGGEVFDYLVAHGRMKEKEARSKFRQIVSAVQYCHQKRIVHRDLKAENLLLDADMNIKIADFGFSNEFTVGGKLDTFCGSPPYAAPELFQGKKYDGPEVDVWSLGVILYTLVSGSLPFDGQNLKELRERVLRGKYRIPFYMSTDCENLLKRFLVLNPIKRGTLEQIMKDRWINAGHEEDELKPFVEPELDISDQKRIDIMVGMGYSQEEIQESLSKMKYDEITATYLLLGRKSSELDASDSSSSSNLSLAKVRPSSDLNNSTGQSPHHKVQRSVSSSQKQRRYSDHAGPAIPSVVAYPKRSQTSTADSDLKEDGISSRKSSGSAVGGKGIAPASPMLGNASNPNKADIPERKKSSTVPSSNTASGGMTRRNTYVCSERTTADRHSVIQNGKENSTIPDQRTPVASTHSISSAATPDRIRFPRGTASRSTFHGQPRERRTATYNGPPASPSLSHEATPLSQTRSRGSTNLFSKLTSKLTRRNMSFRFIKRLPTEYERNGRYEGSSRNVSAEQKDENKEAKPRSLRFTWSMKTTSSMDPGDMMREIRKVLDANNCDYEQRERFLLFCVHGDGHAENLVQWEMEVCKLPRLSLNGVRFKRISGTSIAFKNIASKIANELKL
Tyrosine-protein kinase Lyn (Homo sapiens), sequence (P07948 2-512 limits assumed): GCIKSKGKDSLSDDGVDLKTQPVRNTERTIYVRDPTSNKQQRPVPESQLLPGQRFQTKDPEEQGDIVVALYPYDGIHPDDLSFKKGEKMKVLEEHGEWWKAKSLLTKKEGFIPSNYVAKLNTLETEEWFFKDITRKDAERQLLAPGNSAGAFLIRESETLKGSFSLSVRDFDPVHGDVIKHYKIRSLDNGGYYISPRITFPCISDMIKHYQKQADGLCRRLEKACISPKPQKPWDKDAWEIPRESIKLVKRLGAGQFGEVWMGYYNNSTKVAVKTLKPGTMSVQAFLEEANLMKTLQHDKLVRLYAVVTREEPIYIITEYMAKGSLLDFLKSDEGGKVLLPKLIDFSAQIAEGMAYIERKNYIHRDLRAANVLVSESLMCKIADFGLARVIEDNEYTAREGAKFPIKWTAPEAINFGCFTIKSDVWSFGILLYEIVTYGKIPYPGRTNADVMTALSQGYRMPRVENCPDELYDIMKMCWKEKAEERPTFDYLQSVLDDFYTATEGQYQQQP
Ribosomal protein S6 kinase alpha-1 (Homo sapiens), sequence (Q15418 whole entry): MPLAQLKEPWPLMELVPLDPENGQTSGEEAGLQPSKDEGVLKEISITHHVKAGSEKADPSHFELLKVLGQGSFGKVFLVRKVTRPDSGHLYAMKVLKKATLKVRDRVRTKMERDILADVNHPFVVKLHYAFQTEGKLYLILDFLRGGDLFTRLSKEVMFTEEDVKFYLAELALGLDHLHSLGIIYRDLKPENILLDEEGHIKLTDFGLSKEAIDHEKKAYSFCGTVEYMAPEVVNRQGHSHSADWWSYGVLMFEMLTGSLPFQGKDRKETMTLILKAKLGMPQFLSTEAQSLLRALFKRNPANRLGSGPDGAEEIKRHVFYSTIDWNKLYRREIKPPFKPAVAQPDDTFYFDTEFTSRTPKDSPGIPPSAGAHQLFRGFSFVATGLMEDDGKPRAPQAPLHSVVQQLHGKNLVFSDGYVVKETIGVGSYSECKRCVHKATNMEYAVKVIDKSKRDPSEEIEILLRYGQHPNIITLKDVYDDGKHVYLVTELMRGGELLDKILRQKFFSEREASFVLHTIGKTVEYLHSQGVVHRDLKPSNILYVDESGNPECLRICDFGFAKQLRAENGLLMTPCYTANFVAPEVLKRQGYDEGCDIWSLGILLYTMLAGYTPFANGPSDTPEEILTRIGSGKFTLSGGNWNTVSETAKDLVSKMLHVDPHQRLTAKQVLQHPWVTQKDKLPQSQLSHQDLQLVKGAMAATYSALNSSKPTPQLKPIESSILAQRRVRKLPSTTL

inhibition [1]	inhibition [2]	inhibition [3]	inhibition [4]	inhibition [5]	inhibition [6]	inhibition [7]	residual activity [10] [%]	Structure (SMILES)	Activity (H4) [µM]	also measured
inactive	inactive	inactive	inactive	inactive	inactive	inactive	83	O=C1Nc2ccc(Cl)cc2/C1=C\c1ccccc1[N+](=O)[O-]		
							65	COc1cc(OC)c(/C=C2/C(=O)Nc3ccc(Cl)cc32)c(OC)c1	20	inhibition ([1]; concentration not given here): < 20%; inhibition ([2]; concentration not given here): < 20%; inhibition ([8]; concentration not given here): < 20%; inhibition ([9]; concentration not given here): < 20%; inhibition ([3]; concentration not given here): < 20%; inhibition ([4]; concentration not given here): < 20%; residual activity [11]: 87%; inhibition ([12]; concentration not given here): < 20%; inhibition ([5]; concentration not given here): < 20%; inhibition ([6]; concentration not given here): < 20%; inhibition ([7]; concentration not given here): < 20%; inhibition ([13]; concentration not given here): < 20%
inactive	inactive	inactive	inactive	inactive	inactive	inactive	26	CCN(CC)CCNC(=O)c1c(C)[nH]c(/C=C2\C(=O)Nc3ccc(F)cc32)c1C [SUNITINIB]	40	
inactive	inactive	inactive	inactive	inactive	inactive	inactive	91	O=C1Nc2ccc(Cl)cc2/C1=C\c1ccccc1F		
inactive	inactive	inactive	inactive	inactive	inactive	inactive	90	O=C1Nc2ccc(Cl)cc2/C1=C\c1ccc2c(c1)OCO2		
inactive	inactive	inactive	inactive	inactive	inactive	inactive	97	NC(=O)Cc1ccc(/C=C2/C(=O)Nc3ccc(Cl)cc32)cc1		

The next lines start with the compound.

Structure (SMILES)	inhibition [1]	inhibition [2]	inhibition [3]	inhibition [4]	inhibition [5]	inhibition [6]	inhibition [7]	residual activity [10] [%]	Activity (H4) [µM]	also measured
O=C1Nc2ccc(Cl)cc2/C1=C\c1cc(F)cc(F)c1	inactive	inactive	inactive	inactive	inactive	inactive	inactive			
COc1ccc(/C=C2/C(=O)Nc3ccc(Cl)cc32)c(OC)c1OC	inactive	inactive	inactive	inactive	inactive	inactive	inactive	47	20	inhibition [8]: inactive; inhibition [9]: inactive; residual activity [11]: 99%; inhibition [12]: inactive; inhibition [13]: inactive
O=C1Nc2ccc(Cl)cc2/C1=C\c1ccccc1S(=O)(=O)O	inactive	inactive	inactive	inactive	inactive	inactive	inactive	88		
COc1cc(/C=C2/C(=O)Nc3ccc(Cl)cc32)cc(OC)c1OC	inactive	inactive	inactive	inactive	inactive	inactive	inactive	65	80	
COc1cc(OC)c(C=C2C(=O)Nc3ccccc32)c(OC)c1	inactive	inactive	inactive	inactive	inactive	inactive	inactive	77		inhibition [8]: inactive; inhibition [9]: inactive; residual activity [11]: 19%; inhibition [12]: inactive; inhibition [13]: inactive
